Each structure is given as a SMILES string. Counter-ions that a name gives are not always drawn. Where only a bound is given, the exact number is not on record here.

Sequence of SHP2 (Q06124 whole entry): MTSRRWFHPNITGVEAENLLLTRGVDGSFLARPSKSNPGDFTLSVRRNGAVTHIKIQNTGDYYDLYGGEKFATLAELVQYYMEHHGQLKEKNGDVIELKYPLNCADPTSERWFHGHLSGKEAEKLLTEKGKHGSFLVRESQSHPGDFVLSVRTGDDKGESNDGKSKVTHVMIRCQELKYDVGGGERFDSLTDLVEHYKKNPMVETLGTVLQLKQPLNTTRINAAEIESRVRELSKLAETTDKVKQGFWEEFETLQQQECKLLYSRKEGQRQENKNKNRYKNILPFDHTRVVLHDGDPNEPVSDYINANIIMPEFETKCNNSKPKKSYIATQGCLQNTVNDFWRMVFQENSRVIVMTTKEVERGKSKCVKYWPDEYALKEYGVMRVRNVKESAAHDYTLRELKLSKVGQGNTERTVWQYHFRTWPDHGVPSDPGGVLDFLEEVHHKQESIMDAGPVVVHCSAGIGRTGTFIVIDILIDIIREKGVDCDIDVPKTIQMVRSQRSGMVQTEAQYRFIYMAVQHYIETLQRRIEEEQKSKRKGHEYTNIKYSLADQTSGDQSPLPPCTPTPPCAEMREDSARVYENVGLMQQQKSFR

This experiment has as its target SHP2 (Homo sapiens (Human), UniProt Q06124). Briefly: SHP2 Allosteric Inhibition Assay (DiFMUP prompt fluorescence). Format: biochemical. Particulars: 0.25 nM SHP2 activated with 0.5 μM peptide IRS1_pY1172(dPEG8)pY1222; substrate DiFMUP 100 μM; 25° C.
As usually defined, the IC50 is the concentration that gives 50% inhibition. High values mean weaker potency in that assay, low ones greater potency in that assay. The molecule `C[C@@H]1CCN(c2n[nH]c3nc(N4CCC(C)(CN)CC4)cnc23)c2ccc(-c3nnc[nH]3)nc21` [Compound 199, 1-(4-methyl-1-{3-[(4R)-4-methyl-6-(4H-1,2,4-triazol-3-yl)-1,2,3,4-tetrahydro-1,5-naphthyridin-1-yl]-1H-pyrazolo[3,4-b]pyrazin-6-yl}piperidin-4-yl)methanamine] showed an IC50 of less than 1000 nM. `CC(C)c1nc(-c2ccc3c(n2)CCCN3c2n[nH]c3nc(N4CCC5(CC4)CO[C@@H](C)[C@H]5N)cnc23)no1` [Compound 321, (3S,4S)-3-methyl-8-(3-{6-[5-(propan-2-yl)-1,2,4-oxadiazol-3-yl]-1,2,3,4-tetrahydro-1,5-naphthyridin-1-yl}-1H-pyrazolo[3,4-b]pyrazin-6-yl)-2-oxa-8-azaspiro[4.5]decan-4-amine; formic acid] yielded an IC50 of less than 1000 nM. Molecule `CNC(=O)c1ccc2c(c1)CCN2c1n[nH]c2nc(N3CCC(C)(CN)CC3)cnc12` [Compound 113, 1-(6-(4-(aminomethyl)-4-methylpiperidin-1-yl)-1H-pyrazolo[3,4-b]pyrazin-3-yl)-N-methylindoline-5-carboxamide] displayed an IC50 of less than 1000 nM. Take `C[C@@H]1OCC2(CCN(c3cnc4c(N5CCCc6nc(-c7cnn(C(F)F)c7)ccc65)n[nH]c4n3)CC2)[C@@H]1N` [Compound 317]: the IC50 was less than 1000 nM.

Take `CC1(CN)CCN(c2cnc3c(Nc4ccnc(Cl)c4Cl)n[nH]c3n2)CC1` [Compound 500, 6-(4-(Aminomethyl)-4-methylpiperidin-1-yl)-N-(2,3-dichloropyridin-4-yl)-1H-pyrazolo[3,4-b]pyrazin-3-amine hydrochloride]: the IC50 was less than 1000 nM. The result for `CCC1CCN(c2n[nH]c3nc(N4CCC(C)(CN)CC4)cnc23)c2ccccc21` (stereo not drawn) [Compound 84] reads less than 1000 nM; that for `CC1(CN)CCN(c2cnc3c(N4CCCc5c(-c6cccnc6)cccc54)n[nH]c3n2)CC1` [Compound 66], less than 1000 nM; that for `Cc1ccc2c(c1S(C)(=O)=O)CCCN2c1n[nH]c2nc(N3CCC4(CC3)CO[C@@H](C)[C@H]4N)cnc12` [Compound 345], less than 1000 nM. `C[C@H]1CCN(c2n[nH]c3nc(N4CCC(C)(CN)CC4)cnc23)c2ccccc21` [Compound 50, (S)-(4-methyl-1-(3-(4-methyl-3,4-dihydroquinolin-1(2H)-yl)-1H-pyrazolo[3,4-b]pyrazin-6-yl)piperidin-4-yl)methanamine] registered an IC50 of less than 1000 nM. As for `c1ccc(CC2CCCCN2c2cnc3c(N4CCCc5ncccc54)n[nH]c3n2)cc1` (stereo not drawn) [Compound 161], the half-maximal inhibitory concentration (IC50) is no less than 10000 nM. Turning to `C[C@@H]1CCN(c2n[nH]c3nc(N4CCC5(CC4)CO[C@@H](C)[C@H]5N)cnc23)c2ccc(C#N)cc21` [Compound 219], the IC50 is less than 1000 nM. For the molecule `C[C@@H]1OCC2(CCN(c3cnc4c(N5CCCc6c5ccnc6-c5ccnn5C)n[nH]c4n3)CC2)[C@@H]1N` [Compound 303], the IC50 was less than 1000 nM.

For `CC1(CN)CCN(c2cnc3c(N4CCC(O)c5ccccc54)n[nH]c3n2)CC1` (stereo not drawn) [Compound 119, 1-(6-(4-(aminomethyl)-4-methylpiperidin-1-yl)-1H-pyrazolo[3,4-b]pyrazin-3-yl)-1,2,3,4-tetrahydroquinolin-4-ol], the IC50 was less than 1000 nM. For `C[C@@H]1OCC2(CCN(c3cnc4c(N5CCCc6c5cccc6S(C)(=O)=O)n[nH]c4n3)CC2)[C@@H]1N` [Compound 281, (3S,4S)-8-[3-(5-methanesulfonyl-1,2,3,4-tetrahydroquinolin-1-yl)-1H-pyrazolo[3,4-b]pyrazin-6-yl]-3-methyl-2-oxa-8-azaspiro[4.5]decan-4-amine], the IC50 was less than 1000 nM. The result for `C[C@@H]1OCC2(CCN(c3cnc4c(N5CCNc6nc(-c7cnn(C)c7)ccc65)n[nH]c4n3)CC2)[C@@H]1N` [Compound 296, (3S,4S)-3-methyl-8-(3-(6-(1-methyl-1H-pyrazol-4-yl)-3,4-dihydropyrido[2,3-b]pyrazin-1(2H)-yl)-1H-pyrazolo[3,4-b]pyrazin-6-yl)-2-oxa-8-azaspiro[4.5]decan-4-amine] reads less than 1000 nM; that for `Cc1nnc(-c2ccc3c(c2)[C@@H](C)CCN3c2n[nH]c3nc(N4CCC5(CC4)CO[C@@H](C)[C@H]5N)cnc23)o1` [Compound 353], less than 1000 nM; that for `C[C@@H]1OCC2(CCN(c3cnc4c(N5CCN([C@H]6C[C@](C)(O)C6)c6cc(C#N)ccc65)n[nH]c4n3)CC2)[C@@H]1N` [Compound 527], less than 1000 nM. Turning to `CC1(CN)CCN(c2cnc3c(N4CCCc5ncccc54)n[nH]c3n2)C1` (stereo not drawn) [Compound 26, (1-(3-(3,4-dihydro-1,5-naphthyridin-1(2H)-yl)-1H-pyrazolo[3,4-b]pyrazin-6-yl)-3-methylpyrrolidin-3-yl)methanamine dihydrochloride], the IC50 was less than 1000 nM. For the molecule `N[C@@H]1CCCC12CCN(c1cnc3c(N4CCCc5ncccc54)n[nH]c3n1)CC2` [Compound 212], the IC50 is less than 1000 nM. In the case of `Cc1cccc2c1N(C1CC1)CCN2c1n[nH]c2nc(N3CCC4(CC3)CO[C@@H](C)[C@H]4N)cnc12` [Compound 379], the IC50 was less than 1000 nM. As to `C[C@@H]1OCC2(CCN(c3cnc4c(N5CCc6cccnc6C5)n[nH]c4n3)CC2)[C@@H]1N` [Compound 271], the IC50 was less than 1000 nM. `CC1(N)CCN(c2cnc3c(Oc4cccnc4Cl)n[nH]c3n2)CC1` [Compound 510, 1-(3-((2-chloropyridin-3-yl)oxy)-1H-pyrazolo[3,4-b]pyrazin-6-yl)-4-methylpiperidin-4-amine] showed an IC50 of less than 1000 nM. Under `CC1(N)CCN(c2cnc3c(N4CCCc5ccncc54)n[nH]c3n2)CC1` [Compound 27] stands no less than 10000 nM; under `CC1(CN)CCN(c2cnc3c(N4CCc5c(C(N)=O)cccc54)n[nH]c3n2)CC1` [Compound 108, 1-(6-(4-(aminomethyl)-4-methylpiperidin-1-yl)-1H-pyrazolo[3,4-b]pyrazin-3-yl)indoline-4-carboxamide], less than 1000 nM. As for `C[C@@H](N)C1(C)CCN(c2cnc3c(N4CCCc5ncccc54)n[nH]c3n2)CC1` (single isomer, unassigned) [Compound 111], the IC50 was less than 1000 nM. The molecule `CC1CCN(c2n[nH]c3nc(N4CCC5(CC4)CO[C@@H](C)[C@H]5N)cnc23)c2ccc(C(N)=O)nc21` (stereo in doubt) [Compound 264, (8S)-5-{6-[(3S,4S)-4-amino-3-methyl-2-oxa-8-azaspiro[4.5]decan-8-yl]-1H-pyrazolo[3,4-b]pyrazin-3-yl}-8-methyl-5,6,7,8-tetrahydro-1,5-naphthyridine-2-carboxamide] came in with an IC50 of less than 1000 nM.

In turn, `Cn1ccnc1Sc1n[nH]c2nc(N3CCC(C)(N)CC3)cnc12` [Compound 14, 4-methyl-1-(3-((1-methyl-1H-imidazol-2-yl)thio)-1H-pyrazolo[3,4-b]pyrazin-6-yl)piperidin-4-amine] came in with an IC50 of no less than 10000 nM. `CC1(N)CCN(c2cnc3c(N4CCCc5c(-c6cccnc6)cccc54)n[nH]c3n2)CC1` [Compound 60] gave an IC50 of less than 1000 nM.

Regarding `C[C@@H]1CCN(c2n[nH]c3nc(N4CCC5(CC4)CO[C@@H](C)[C@H]5N)cnc23)c2ccc(-c3cnn(C)c3)nc21` [Compound 266, (3S,4S)-3-methyl-8-{3-[(4R)-4-methyl-6-(1-methyl-1H-pyrazol-4-yl)-1,2,3,4-tetrahydro-1,5-naphthyridin-1-yl]-1H-pyrazolo[3,4-b]pyrazin-6-yl}-2-oxa-8-azaspiro[4.5]decan-4-amine], the IC50 was less than 1000 nM. With `CC1CCN(c2n[nH]c3nc(N4CCC(CN)(CC(=O)O)CC4)cnc23)c2cccnc21` (stereo not drawn) [Compound 171, 2-[4-(aminomethyl)-1-[3-(4-methyl-1,2,3,4-tetrahydro-1,5-naphthyridin-1-yl)-1H-pyrazolo[3,4-b]pyrazin-6-yl]piperidin-4-yl]acetic acid], the IC50 was in the range of 1000 to 10000 nM. The result for `CC1(N)CCN(c2cnc3c(N4CCCc5cnccc54)n[nH]c3n2)CC1` [Compound 30] reads 1000 to 10000 nM.

The molecule `Cc1nccc(Oc2n[nH]c3nc(N4CCC5(CC4)CO[C@@H](C)[C@H]5N)cnc23)c1Cl` [Compound 517, (3S,4S)-8-(3-((3-chloro-2-methylpyridin-4-yl)oxy)-1H-pyrazolo[3,4-b]pyrazin-6-yl)-3-methyl-2-oxa-8-azaspiro[4.5]decan-4-amine] registered an IC50 of less than 1000 nM.

For `C[C@@H]1OCC2(CCN(c3cnc4c(N5CCC(C(F)F)c6ccccc65)n[nH]c4n3)CC2)[C@@H]1N` (stereo partly drawn) [Compound 250], the IC50 was less than 1000 nM. On to `CC1(N)CCN(c2cnc3c(Sc4ccnc(N)c4F)n[nH]c3n2)CC1` [Compound 489, 4-((6-(4-amino-4-methylpiperidin-1-yl)-1H-pyrazolo[3,4-b]pyrazin-3-yl)thio)-3-fluoropyridin-2-amine], for which the IC50 is less than 1000 nM. Under `C[C@@H]1CCN(c2n[nH]c3nc(N4CCC(C)(CN)CC4)cnc23)c2ccc(C#N)cc21` (single isomer, unassigned) [Compound 115] stands less than 1000 nM; under `C[C@@H]1OCC2(CCN(c3cnc4c(N5CC[C@@H](C(F)F)c6cc(C#N)ccc65)n[nH]c4n3)CC2)[C@@H]1N` [Compound 326], less than 1000 nM; under `CC(C)c1cccc2c1CCCN2c1n[nH]c2nc(N3CCC(C)(CN)CC3)cnc12` [Compound 91], less than 1000 nM. Take `CC1(N)CCN(c2cnc3c(N4CCOc5ncccc54)n[nH]c3n2)CC1` [Compound 31]: the IC50 was less than 1000 nM. Under `C[C@@H]1OCC2(CCN(c3cnc4c(N5CCN(CCS(C)(=O)=O)c6cc(C#N)ccc65)n[nH]c4n3)CC2)[C@@H]1N` [Compound 408] stands less than 1000 nM; under `C[C@@H]1OCC2(CCN(c3cnc4c(N5CCCc6nc(-c7cnco7)ccc65)n[nH]c4n3)CC2)[C@@H]1N` [Compound 318], less than 1000 nM; under `NCC1(N)CCN(c2cnc3c(N4CCCc5ncccc54)n[nH]c3n2)CC1` [Compound 179], less than 1000 nM. `C[C@@H]1OCC2(CCN(c3cnc4c(N5CCCc6nc(-c7cccnn7)ccc65)n[nH]c4n3)CC2)[C@@H]1N` [Compound 348] showed an IC50 of less than 1000 nM.

The values are drawn from patent US11591336B2 (Relay Therapeutics, Inc., priority 2017, dated 2023).
